{"source": "patent US20080200454A1", "about": "“CARBON-LINKED TETRAHYDRO-PYRAZOLO-PYRIDINE MODULATORS OF CATHEPSIN S” (priority 2007, published 2008)", "data": [{"target": "Recombinant human cathepsin S (CatS) (Homo sapiens, UniProt P25774)", "sequence (P25774 115-331)": "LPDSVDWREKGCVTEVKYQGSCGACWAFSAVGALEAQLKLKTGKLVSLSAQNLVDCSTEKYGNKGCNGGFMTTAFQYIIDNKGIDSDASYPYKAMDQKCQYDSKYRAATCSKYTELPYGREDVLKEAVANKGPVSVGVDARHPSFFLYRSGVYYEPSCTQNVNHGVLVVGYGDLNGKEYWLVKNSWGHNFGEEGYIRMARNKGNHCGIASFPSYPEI", "test": "Recombinant human cathepsin S (CatS) inhibition assay, fluorogenic substrate Z-Valine-Valine-Arginine-AMC;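 further: Baculovirus-expressed CatS in pH 5.0 sodium acetate buffer with DTT and NaCl, fluorescence read each minute over 20 min, inhibition derived from rate slope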", "details": "not given", "units": {"IC50": "nM"}, "values": [{"smiles": "CS(=O)(=O)NCc1ccc(C#Cc2cc(-c3nn(CCCN4CCOCC4)c4c3CN(S(C)(=O)=O)CC4)ccc2Cl)cc1", "note": "[Example 70, N-(4-{2-Chloro-5-[5-methanesulfonyl-1-(3-morpholin-4-yl-propyl)-4,5,6,7-tetrahydro-1H-pyrazolo[4,3-c]pyridin-3-yl]-phenylethynyl}-benzyl)-methanesulfonamide]", "IC50": 270}, {"smiles": "NC(=O)N1CCc2c(c(-c3ccc(Cl)c(C#Cc4ccc(Cl)c(C(=O)NC[C@@H]5CCNC5)c4)c3)nn2CCCN2CCSCC2)C1", "note": "[Example 582, 3-{4-Chloro-3-[(4-chloro-3-{[(3R)-pyrrolidin-3-ylmethyl]carbamoyl}phenyl)ethynyl]phenyl}-1-(3-thiomorpholin-4-ylpropyl)-1,4,6,7-tetrahydro-5H-pyrazolo[4,3-c]pyridine-5-carboxamide]", "IC50": 40}, {"smiles": "CN1CCC(C2CCN(C[C@H](O)Cn3nc(-c4ccc(Cl)c(CCc5ccc(Cl)cc5)c4)c4c3CCN(S(C)(=O)=O)C4)CC2)CC1", "note": "[Example 248, (2S)-1-[3-{4-Chloro-3-[2-(4-chlorophenyl)ethyl]phenyl}-5-(methylsulfonyl)-4,5,6,7-tetrahydro-1H-pyrazolo[4,3-c]pyridin-1-yl]-3-(1′-methyl-4,4′-bipiperidin-1-yl)propan-2-ol]", "IC50": 20}, {"smiles": "CC(C)(C)OC(=O)N1CCN(CC(O)Cn2nc(-c3ccc(Cl)c(C#Cc4ccc(Cl)cc4)c3)c3c2CCN(S(C)(=O)=O)C3)CC1", "note": "(centres unmarked) [Example 131, 4-(3-{3-[4-Chloro-3-(4-chloro-phenylethynyl)-phenyl]-5-methanesulfonyl-4,5,6,7-tetrahydro-pyrazolo[4,3-c]pyridin-1-yl}-2-hydroxy-propyl)-piperazine-1-carboxylic acid tert-butyl ester]", "IC50": 160}, {"smiles": "NC(=O)N1CCc2c(c(-c3ccc(Cl)c(C#Cc4ccc(C(=O)NCc5cccnc5)cc4)c3)nn2CCCN2CCSCC2)C1", "note": "[Example 162, 3-{4-Chloro-3-[(4-{[(pyridin-3-ylmethyl)amino]carbonyl}phenyl)ethynyl]phenyl}-1-(3-thiomorpholin-4-ylpropyl)-1,4,6,7-tetrahydro-5H-pyrazolo[4,3-c]pyridine-5-carboxamide]", "IC50": 90}, {"smiles": "Clc1ccc(CNCc2ccc(C#Cc3cc(-c4nn(CCCN5CCOCC5)c5c4CNCC5)ccc3Cl)cc2)cc1", "note": "[Example 166, 1-[4-({2-Chloro-5-[1-(3-morpholin-4-ylpropyl)-4,5,6,7-tetrahydro-1H-pyrazolo[4,3-c]pyridin-3-yl]phenyl}ethynyl)phenyl]-N-[(4-chlorophenyl)methyl]methanamine]", "IC50": 2520}, {"smiles": "CS(=O)(=O)N1CCc2c(c(-c3ccc(C(F)(F)F)c(C#Cc4ccc(Cl)cc4)c3)nn2CC(O)CN2CCC(C(N)=O)CC2)C1", "note": "(centres unmarked) [Example 119, 1-(3-{3-[3-(4-Chloro-phenylethynyl)-4-trifluoromethyl-phenyl]-5-methanesulfonyl-4,5,6,7-tetrahydro-pyrazolo[4,3-c]pyridin-1-yl}-2-hydroxy-propyl)-piperidine-4-carboxylic acid amide]", "IC50": 60}, {"smiles": "NC(=O)C1CCN(CCCn2nc(-c3ccc(Cl)c(C#Cc4ccc(CNCc5ccc(Cl)cc5)cc4)c3)c3c2CCN(C(N)=O)C3)CC1", "note": "[Example 461, 1-{3-[4-(Aminocarbonyl)piperidin-1-yl]propyl}-3-(4-chloro-3-{[4-({[(4-chlorophenyl)methyl]amino}methyl)phenyl]ethynyl}phenyl)-1,4,6,7-tetrahydro-5H-pyrazolo[4,3-c]pyridine-5-carboxamide]", "IC50": 30}, {"smiles": "NC(=O)N1CCc2c(c(-c3ccc(Cl)c(C#Cc4ccc(CNCc5ccc(Cl)cc5)cc4)c3)nn2C[C@@H](O)CN2CCSCC2)C1", "note": "[Example 251, (S)-3-(4-Chloro-3-{4-[(4-chloro-benzylamino)-methyl]-phenylethynyl}-phenyl)-1-(2-hydroxy-3-thiomorpholin-4-yl-propyl)-1,4,6,7-tetrahydro-pyrazolo[4,3-c]pyridine-5-carboxylic acid amide]", "IC50": 40}, {"smiles": "CS(=O)(=O)N1CCc2c(c(-c3cccc(CCc4cccc(O)c4)c3)nn2CCCN2CCOCC2)C1", "note": "[Example 296, 3-(2-{3-[5-(Methylsulfonyl)-1-(3-morpholin-4-ylpropyl)-4,5,6,7-tetrahydro-1H-pyrazolo[4,3-c]pyridin-3-yl]phenyl}ethyl)phenol]", "IC50": 15500}, {"smiles": "CS(=O)(=O)N1CCc2c(c(-c3ccc(Cl)c(CCCNS(=O)(=O)c4ccccc4Cl)c3)nn2CCCN2CCC(N3CCCC3=O)CC2)C1", "note": "[Example 95, 2-Chloro-N-{3-[2-chloro-5-(5-methanesulfonyl-1-{3-[4-(2-oxo-pyrrolidin-1-yl)-piperidin-1-yl]-propyl}-4,5,6,7-tetrahydro-1H-pyrazolo[4,3-c]pyridin-3-yl)-phenyl]-propyl}-benzenesulfonamide]", "IC50": 1150}, {"smiles": "CC(C)(C)OC(=O)NC1CCN(CC(O)Cn2nc(-c3ccc(C(F)(F)F)c(C#Cc4ccc(Cl)cc4)c3)c3c2CCN(S(C)(=O)=O)C3)CC1", "note": "(centres unmarked) [Example 121, [1-(3-{3-[3-(4-Chloro-phenylethynyl)-4-trifluoromethyl-phenyl]-5-methanesulfonyl-4,5,6,7-tetrahydro-pyrazolo[4,3-c]pyridin-1-yl}-2-hydroxy-propyl)-piperidin-4-yl]-carbamic acid tert-butyl ester]", "IC50": 150}, {"smiles": "COC(=O)C1CCN(CC(O)Cn2nc(-c3ccc(Cl)c(C#Cc4ccc(Cl)cc4)c3)c3c2CCN(S(C)(=O)=O)C3)CC1", "note": "(centres unmarked) [Example 127, 1-(3-{3-[4-Chloro-3-(4-chloro-phenylethynyl)-phenyl]-5-methanesulfonyl-4,5,6,7-tetrahydro-pyrazolo[4,3-c]pyridin-1-yl}-2-hydroxy-propyl)-piperidine-4-carboxylic acid methyl ester]", "IC50": 20}]}, {"target": "Recombinant human cathepsin S (CatS) (Homo sapiens, UniProt P25774)", "test": "Recombinant human cathepsin S (CatS) inhibition assay, fluorogenic substrate Z-Valine-Valine-Arginine-AMC", "details": "CatS IC50", "units": {"IC50": "nM"}, "values": [{"smiles": "CS(=O)(=O)N1CCc2c(c(-c3ccc(Cl)c(C#Cc4ccc(CNC5CCC5)cc4)c3)nn2CCCN2CCOCC2)C1", "note": "[Example 324, N-{[4-({2-Chloro-5-[5-(methylsulfonyl)-1-(3-morpholin-4-ylpropyl)-4,5,6,7-tetrahydro-1H-pyrazolo[4,3-c]pyridin-3-yl]phenyl}ethynyl)phenyl]methyl}cyclobutanamine]", "IC50": 1340}, {"smiles": "CC(C)CC#Cc1cc(-c2nn(C[C@@H](O)CN3CCC(C4CCNCC4)CC3)c3c2CN(S(C)(=O)=O)CC3)ccc1Cl", "note": "[Example 239, (2S)-1-(4,4′-Bipiperidin-1-yl)-3-{3-[4-chloro-3-(4-methylpent-1-yn-1-yl)phenyl]-5-(methylsulfonyl)-4,5,6,7-tetrahydro-1H-pyrazolo[4,3-c]pyridin-1-yl}propan-2-ol]", "IC50": 610}, {"smiles": "C[C@H]1COCCN1C[C@@H](O)Cn1nc(-c2ccc(Cl)c(C#Cc3ccc(CNCc4ccc(Cl)cc4)cc3)c2)c2c1CCN(S(C)(=O)=O)C2", "note": "[Example 529, (2R)-1-[3-(4-Chloro-3-{[4-({[(4-chlorophenyl)methyl]amino}methyl)phenyl]ethynyl}phenyl)-5-(methylsulfonyl)-4,5,6,7-tetrahydro-1H-pyrazolo[4,3-c]pyridin-1-yl]-3-[(3S)-3-methylmorpholin-4-yl]propan-2-ol]", "IC50": 120}, {"smiles": "CS(=O)(=O)N1CCc2c(c(-c3ccc(Cl)c(C#Cc4ccc5c(c4)CN[C@@H](CO)C5)c3)nn2CCCN2CCOCC2)C1", "note": "[Example 201, [(3R)-7-({2-Chloro-5-[5-(methylsulfonyl)-1-(3-morpholin-4-ylpropyl)-4,5,6,7-tetrahydro-1H-pyrazolo[4,3-c]pyridin-3-yl]phenyl}ethynyl)-1,2,3,4-tetrahydroisoquinolin-3-yl]methanol]", "IC50": 190}, {"smiles": "C[C@H]1COCCN1CCCn1nc(-c2ccc(Cl)c(C#Cc3ccc(Cl)c(CNC4CCCC4)c3)c2)c2c1CCN(C(=O)C(N)=O)C2", "note": "[Example 269, (S)-2-{3-[4-Chloro-3-(4-chloro-3-cyclopentylaminomethyl-phenylethynyl)-phenyl]-1-[3-(3-methyl-morpholin-4-yl)-propyl]-1,4,6,7-tetrahydro-pyrazolo[4,3-c]pyridin-5-yl}-2-oxo-acetamide]", "IC50": 10}, {"smiles": "NC(=O)N1CCc2c(c(-c3ccc(Cl)c(C#Cc4ccc(CNCc5ccc(Cl)cc5)cc4)c3)nn2CCCN2CCC3(CC2)OCCO3)C1", "note": "[Example 462, 3-(4-Chloro-3-{[4-({[(4-chlorophenyl)methyl]amino}methyl)phenyl]ethynyl}phenyl)-1-[3-(1,4-dioxa-8-azaspiro[4.5]dec-8-yl)propyl]-1,4,6,7-tetrahydro-5H-pyrazolo[4,3-c]pyridine-5-carboxamide]", "IC50": 50}, {"smiles": "CC(=O)N1CCN(CCCn2nc(-c3ccc(Cl)c(C#Cc4ccc(CNCc5ccc(Cl)cc5)cc4)c3)c3c2CCN(S(C)(=O)=O)C3)CC1", "note": "[Example 353, 1-{4-[(5-{1-[3-(4-Acetylpiperazin-1-yl)propyl]-5-(methylsulfonyl)-4,5,6,7-tetrahydro-1H-pyrazolo[4,3-c]pyridin-3-yl}-2-chlorophenyl)ethynyl]phenyl}-N-[(4-chlorophenyl)methyl]methanamine]", "IC50": 150}, {"smiles": "CC1(C)CCN(CCCn2nc(-c3ccc(Cl)c(C#Cc4ccc(CNCc5ccc(Cl)cc5)cc4)c3)c3c2CCN(S(C)(=O)=O)C3)CC1", "note": "[Example 355, 1-{4-[(2-Chloro-5-{1-[3-(4,4-dimethylpiperidin-1-yl)propyl]-5-(methylsulfonyl)-4,5,6,7-tetrahydro-1H-pyrazolo[4,3-c]pyridin-3-yl}phenyl)ethynyl]phenyl}-N-[(4-chlorophenyl)methyl]methanamine]", "IC50": 110}, {"smiles": "CS(=O)(=O)N1CCc2c(c(-c3ccc(Cl)c(C#Cc4ccc(C(F)(F)F)cc4)c3)nn2CCCN2CCOCC2)C1", "note": "[Example 30, 3-[4-Chloro-3-(4-trifluoromethyl-phenylethynyl)-phenyl]-5-methanesulfonyl-1-(3-morpholin-4-yl-propyl)-4,5,6,7-tetrahydro-1H-pyrazolo[4,3-c]pyridine]", "IC50": 430}, {"smiles": "CS(=O)(=O)N1CCc2c(c(-c3ccc(Cl)c(C#Cc4ccc(Cl)c(CNCc5ccccc5)c4)c3)nn2CCCN2CCOCC2)C1", "note": "[Example 287, 1-[2-Chloro-5-({2-chloro-5-[5-(methylsulfonyl)-1-(3-morpholin-4-ylpropyl)-4,5,6,7-tetrahydro-1H-pyrazolo[4,3-c]pyridin-3-yl]phenyl}ethynyl)phenyl]-N-(phenylmethyl)methanamine]", "IC50": 50}]}]}
